Laboratory results from patent publication US9771370B2, “Compounds for the inhibition of indoleamine-2,3-dioxygenase” (Merck Patent GmbH, priority 2014, dated 2017).

Biological target: Recombinant human IDO (Homo sapiens, UniProt P14902)
Experiment: Bridge-IT tryptophan fluorescence assay of human IDO-1 inhibition
Assay type: biochemical
Conditions: recombinant human IDO 7.5 nM, L-tryptophan
In short: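 Two protocol variants: 100 μM L-Trp for 90 min at 37 °C, or 30 min enzyme–compound pre-incubation at 25 °C, then 50 μM L-Trp for 60 min at 25 °C. Reaction stopped in Bridge-IT solution A for 30 min at 30 °C.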

Chain of Recombinant human IDO (P14902 whole entry): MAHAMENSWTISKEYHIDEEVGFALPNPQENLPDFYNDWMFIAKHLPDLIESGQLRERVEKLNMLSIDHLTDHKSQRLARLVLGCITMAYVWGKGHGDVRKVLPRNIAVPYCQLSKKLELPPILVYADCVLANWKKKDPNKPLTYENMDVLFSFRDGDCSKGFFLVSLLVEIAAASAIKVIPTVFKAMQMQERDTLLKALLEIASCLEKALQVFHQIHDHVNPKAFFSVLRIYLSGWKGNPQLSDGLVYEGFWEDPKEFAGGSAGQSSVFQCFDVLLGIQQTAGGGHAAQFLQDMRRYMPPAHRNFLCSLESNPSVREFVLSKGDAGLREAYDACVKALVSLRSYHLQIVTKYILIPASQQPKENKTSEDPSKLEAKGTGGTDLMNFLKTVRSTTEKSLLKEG

An IC50 of over 1000 nM was found for OCC1CCC(F)(CCC2c3c(F)cccc3-c3cncn32)CC1 (single isomer, unassigned) [Compound 84a, [4-fluoro-4-[2-[6-fluoro-5H-imidazo[4,3-a]isoindol-5-yl]ethyl]cyclohexyl]methanol] in this work.

An IC50 of over 1000 nM was found for OCC1CCC(F)(CCC2c3c(F)cccc3-c3cncn32)CC1 (single isomer, unassigned) [Compound 84b, [4-fluoro-4-[2-[6-fluoro-5H-imidazo[4,3-a]isoindol-5-yl]ethyl]cyclohexyl]methanol] in this work.

An IC50 of under 100 nM was found for OCC1CCC(F)(CCC2c3c(F)cccc3-c3cncn32)CC1 (single isomer, unassigned) [Compound 84c, [4-fluoro-4-[2-[6-fluoro-5H-imidazo[4,3-a]isoindol-5-yl]ethyl]cyclohexyl]methanol] in this work.

An IC50 of under 100 nM was found for OCC1CCC(F)(CCC2c3c(F)cccc3-c3cncn32)CC1 (single isomer, unassigned) [Compound 84d, [4-fluoro-4-[2-[6-fluoro-5H-imidazo[4,3-a]isoindol-5-yl]ethyl]cyclohexyl]methanol] in this work.

An IC50 of over 1000 nM was found for OC(CC1c2ncccc2-c2cncn21)C1(F)CCC(F)(F)CC1 (single isomer, unassigned) [Compound 87a, 2-[4,6,9-triazatricyclo[6.4.0.0^[2,6]]dodeca-1(8),2,4,9,11-pentaen-7-yl]-1-(1,4,4-trifluorocyclohexyl)ethan-1-ol] in this work.

An IC50 of over 1000 nM was found for OC(CC1c2ncccc2-c2cncn21)C1(F)CCC(F)(F)CC1 (single isomer, unassigned) [Compound 87b, 2-[4,6,9-triazatricyclo[6.4.0.0^[2,6]]dodeca-1(8),2,4,9,11-pentaen-7-yl]-1-(1,4,4-trifluorocyclohexyl)ethan-1-ol] in this work.

An IC50 of over 1000 nM was found for OC(CC1c2ncccc2-c2cncn21)C1(F)CCC(F)(F)CC1 (single isomer, unassigned) [Compound 87c, 2-[4,6,9-triazatricyclo[6.4.0.0^[2,6]]dodeca-1(8),2,4,9,11-pentaen-7-yl]-1-(1,4,4-trifluorocyclohexyl)ethan-1-ol] in this work.

An IC50 of 100 to 1000 nM was found for OC(CC1c2ncccc2-c2cncn21)C1(F)CCC(F)(F)CC1 (single isomer, unassigned) [Compound 87d, 2-[4,6,9-triazatricyclo[6.4.0.0^[2,6]]dodeca-1(8),2,4,9,11-pentaen-7-yl]-1-(1,4,4-trifluorocyclohexyl)ethan-1-ol] in this work.

An IC50 of over 1000 nM was found for CC(C)(C)C(=O)N1CCC(C(O)CC2c3ncccc3-c3cncn32)CC1 (single isomer, unassigned) [Compound 88a, 1-[4-[1-hydroxy-2-[4,6,9-triazatricyclo[6.4.0.0^[2,6]]dodeca-1(8),2,4,9,11-pentaen-7-yl]ethyl]piperidin-1-yl]-2,2-dimethylpropan-1-one] in this work.

An IC50 of over 1000 nM was found for CC(C)(C)C(=O)N1CCC(C(O)CC2c3ncccc3-c3cncn32)CC1 (single isomer, unassigned) [Compound 88b, 1-[4-[1-hydroxy-2-[4,6,9-triazatricyclo[6.4.0.0^[2,6]]dodeca-1(8),2,4,9,11-pentaen-7-yl]ethyl]piperidin-1-yl]-2,2-dimethylpropan-1-one] in this work.

An IC50 of over 1000 nM was found for CC(C)(C)C(=O)N1CCC(C(O)CC2c3ncccc3-c3cncn32)CC1 (single isomer, unassigned) [Compound 88c, 1-[4-[1-hydroxy-2-[4,6,9-triazatricyclo[6.4.0.0^[2,6]]dodeca-1(8),2,4,9,11-pentaen-7-yl]ethyl]piperidin-1-yl]-2,2-dimethylpropan-1-one] in this work.

An IC50 of over 1000 nM was found for CC(C)(C)C(=O)N1CCC(C(O)CC2c3ncccc3-c3cncn32)CC1 (single isomer, unassigned) [Compound 88d, 1-[4-[1-hydroxy-2-[4,6,9-triazatricyclo[6.4.0.0^[2,6]]dodeca-1(8),2,4,9,11-pentaen-7-yl]ethyl]piperidin-1-yl]-2,2-dimethylpropan-1-one] in this work.

An IC50 of over 1000 nM was found for CC(C)[C@H](N)C(=O)N1CCC(F)(CCC2c3ccccc3-c3cncn32)CC1 (single isomer, unassigned) [Compound 89a] in this work.
